Test results: patent US20180200257A1, “METHODS FOR THE TREATMENT OF INFLAMMATORY DISORDERS” (Galapagos NV, priority 2015, published 2018)

Tested on: Subjects With Active Crohn's Disease With Evidence of Mucosal Ulceration
Test: Study 3 - Aspartate Aminotransferase (AST) levels
Format: in vivo, human
Description: Double-Blind, Randomized, Placebo-Controlled, Multi-Centre Study to Investigate the Efficacy and Safety of Compound 1 in Subjects With Active Crohn's Disease With Evidence of Mucosal Ulceration. This is a double-blind, randomized, placebo-controlled, multi-centre Phase 2 study to investigate the efficacy and safety of Compound 1 administered once daily for the treatment of active CD with evidence of mucosal ulceration. The pharmacokinetics (including a PK substudy) and pharmacodynamics of Compound 1 and metabolite in CD will also be characterised. A total of 180 eligible subjects will be randomized to receive Compound 1 or placebo in addition to their stable background treatment (eg, corticosteroids, aminosalicylates, or CD-related antibiotics). The study will consist of 2 parts, with total treatment duration of 20 weeks. Randomization in Part 1 will be stratified according the subject's previous anti-TNF exposure/response, CRP level at Screening, and oral corticosteroid use at visit Day −1. After the first 10 weeks of treatment in Part 1, patients will be re-randomized for Part 2 as shown in the diagram below and will be stratified according to the subject's clinical response, previous anti-TNF exposure/response, and oral corticosteroid use at visit Day -1. [table] AST levels determination is available at Quest Diagnostics, Clinical Trials, Quest House, 125-135 Staines Road, Hounslow, Middlesex, TW3 3JB, United Kingdom under Catalogue n#84450. For Study 3, the data are obtained at BARC Europe, 3B,Industrie Park, Zwijnaarde, B-9052 Ghent, Belgium. AST catalyzes the transamination of aspartate and 2-oxoglutarate, forming L-glutamate and oxalacetate. The oxalacetate is reduced to L-malate by malate dehydrogenase, whilst NADH is converted to NAD+, measured spectrophotometrically. Guidelines for the AST value have been issued by the association for Clinical Biochemistry and Laboratory Medicine, 130-132 Tooley Street LONDON SE1 2TU, united Kingdom, wherein the AST value should be below 34 U/l in Female and below 45 U/L in male. As disclosed in the respective study protocols for Study 1 or 2, at week 12, depending on the outcome of their treatment, the subjects may be continued in their initial treatment course, or reassigned to another treatment group in a randomized blinded fashion until week 24. Therefore, the number of subjects (N) for the period of either 12 weeks, or 24 weeks is provided to reflect this redistribution at week 12.

[1] = 10 weeks results, 200 mg q.d., week 2
[2] = 10 weeks results, 200 mg q.d., week 4
[3] = 10 weeks results, 200 mg q.d., week 6
[4] = 10 weeks results, 200 mg q.d., week 10
[5] = 20 weeks results, 200 mg q.d. week 0 to 10, to 100 mg q.d. week 10 to 20, week 2
[6] = 20 weeks results, 200 mg q.d. week 0 to 10, to 100 mg q.d. week 10 to 20, week 4
[7] = 20 weeks results, 200 mg q.d. week 0 to 10, to 100 mg q.d. week 10 to 20, week 6
[8] = 20 weeks results, 200 mg q.d. week 0 to 10, to 100 mg q.d. week 10 to 20, week 10
[9] = 20 weeks results, 200 mg q.d. week 0 to 10, to 100 mg q.d. week 10 to 20, week 12
[10] = 20 weeks results, 200 mg q.d. week 0 to 10, to 100 mg q.d. week 10 to 20, week 16
[11] = 20 weeks results, 200 mg q.d. week 0 to 10, to 100 mg q.d. week 10 to 20, week 20
[12] = 20 weeks results, 200 mg q.d. week 0 to 10, to placebo week 10 to 20, week 2
[13] = 20 weeks results, 200 mg q.d. week 0 to 10, to placebo week 10 to 20, week 4
[14] = 20 weeks results, 200 mg q.d. week 0 to 10, to placebo week 10 to 20, week 6
[15] = 20 weeks results, 200 mg q.d. week 0 to 10, to placebo week 10 to 20, week 10
[16] = 20 weeks results, 200 mg q.d. week 0 to 10, to placebo week 10 to 20, week 12
[17] = 20 weeks results, 200 mg q.d. week 0 to 10, to placebo week 10 to 20, week 16
[18] = 20 weeks results, 200 mg q.d. week 0 to 10, to placebo week 10 to 20, week 20
[19] = 20 weeks results, continued 200 mg q.d., week 2
[20] = 20 weeks results, continued 200 mg q.d., week 4
[21] = 20 weeks results, continued 200 mg q.d., week 6
[22] = 20 weeks results, continued 200 mg q.d., week 10
[23] = 20 weeks results, continued 200 mg q.d., week 12
[24] = 20 weeks results, continued 200 mg q.d., week 16
[25] = 20 weeks results, continued 200 mg q.d., week 20
[26] = 20 weeks results, placebo week 0 to 10, to 100 mg q.d. week 10 to 20, week 12
[27] = 20 weeks results, placebo week 0 to 10, to 100 mg q.d. week 10 to 20, week 16
[28] = 20 weeks results, placebo week 0 to 10, to 100 mg q.d. week 10 to 20, week 20

In the case of `O=C(Nc1nc2cccc(-c3ccc(CN4CCS(=O)(=O)CC4)cc3)n2n1)C1CC1` [Compound 1, cyclopropanecarboxylic acid {5-[4-(1,1-dioxo-thiomorpholin-4-ylmethyl)-phenyl]-[1,2,4]triazolo[1,5-a]pyridin-2-yl}-amide], the “Study 3 - AST Mean CFB” value [1] is reported as 3.0 IU/L, the “Study 3 - AST Mean percentage CFB” value [1] is reported as 20.1% and the “Study 3 - AST Mean CFB” value [2] is reported as 1.5 IU/L. For the same compound, the “Study 3 - AST Mean percentage CFB” value [2] was 13.4%, the “Study 3 - AST Mean CFB” value [3] was 1.3 IU/L and the “Study 3 - AST Mean percentage CFB” value [3] was 12.0%. The “Study 3 - AST Mean CFB” value [4] was 5.4 IU/L, the “Study 3 - AST Mean percentage CFB” value [4] was 38.7% and the “Study 3 - AST Mean CFB” value [5] was 1.50 IU/L. For the same compound, the “Study 3 - AST Mean percentage CFB” value [5] was 11.88%, the “Study 3 - AST Mean CFB” value [6] was 3.28 IU/L and the “Study 3 - AST Mean percentage CFB” value [6] was 19.48%. The “Study 3 - AST Mean CFB” value [7] was 1.40 IU/L, the “Study 3 - AST Mean percentage CFB” value [7] was 10.05% and the “Study 3 - AST Mean CFB” value [8] was 3.90 IU/L. For the same compound, the “Study 3 - AST Mean percentage CFB” value [8] was 23.93%, the “Study 3 - AST Mean CFB” value [9] was 1.13 IU/L and the “Study 3 - AST Mean percentage CFB” value [9] was 10.30%. The “Study 3 - AST Mean CFB” value [10] was 2.82 IU/L, the “Study 3 - AST Mean percentage CFB” value [10] was 20.91% and the “Study 3 - AST Mean CFB” value [11] was 8.15 IU/L. The “Study 3 - AST Mean percentage CFB” value [11] was 50.50%, the “Study 3 - AST Mean CFB” value [12] was 0.96 IU/L and the “Study 3 - AST Mean percentage CFB” value [12] was 8.86%. The “Study 3 - AST Mean CFB” value [13] was 1.96 IU/L, the “Study 3 - AST Mean percentage CFB” value [13] was 13.24% and the “Study 3 - AST Mean CFB” value [14] was 1.87 IU/L. The “Study 3 - AST Mean percentage CFB” value [14] was 12.17%, the “Study 3 - AST Mean CFB” value [15] was 7.17 IU/L and the “Study 3 - AST Mean percentage CFB” value [15] was 45.50%. The “Study 3 - AST Mean CFB” value [16] was 2.87 IU/L, the “Study 3 - AST Mean percentage CFB” value [16] was 14.82% and the “Study 3 - AST Mean CFB” value [17] was 2.62 IU/L. For the same compound, the “Study 3 - AST Mean percentage CFB” value [17] was 16.62%, the “Study 3 - AST Mean CFB” value [18] was 3.14 IU/L and the “Study 3 - AST Mean percentage CFB” value [18] was 21.09%. The “Study 3 - AST Mean CFB” value [19] was 4.24 IU/L, the “Study 3 - AST Mean percentage CFB” value [19] was 26.67% and the “Study 3 - AST Mean CFB” value [20] was 0.73 IU/L. For the same compound, the “Study 3 - AST Mean percentage CFB” value [20] was 11.03%, the “Study 3 - AST Mean CFB” value [21] was 1.12 IU/L and the “Study 3 - AST Mean percentage CFB” value [21] was 12.72%. For the same compound, the “Study 3 - AST Mean CFB” value [22] was 5.61 IU/L, the “Study 3 - AST Mean percentage CFB” value [22] was 43.70% and the “Study 3 - AST Mean CFB” value [23] was 1.64 IU/L. For the same compound, the “Study 3 - AST Mean percentage CFB” value [23] was 18.27%, the “Study 3 - AST Mean CFB” value [24] was 3.78 IU/L and the “Study 3 - AST Mean percentage CFB” value [24] was 32.98%. For the same compound, the “Study 3 - AST Mean CFB” value [25] was 1.53 IU/L, the “Study 3 - AST Mean percentage CFB” value [25] was 19.45% and the “Study 3 - AST Mean CFB” value [26] was 1.64 IU/L. The “Study 3 - AST Mean percentage CFB” value [26] was 16.84%, the “Study 3 - AST Mean CFB” value [27] was 0.68 IU/L and the “Study 3 - AST Mean percentage CFB” value [27] was 10.89%. The “Study 3 - AST Mean CFB” value [28] was 1.10 IU/L and the “Study 3 - AST Mean percentage CFB” value [28] was 16.93%.
